{"source": "ChEMBL document CHEMBL3813616", "about": "“Discovery of novel 7-azaindoles as PDK1 inhibitors” (Bioorg Med Chem Lett, 2016)", "target": "Dual specificity protein kinase CLK2 (Homo sapiens) (UniProt P49760)", "sequence (P49760 whole entry, looked up, the tested form may be a part)": "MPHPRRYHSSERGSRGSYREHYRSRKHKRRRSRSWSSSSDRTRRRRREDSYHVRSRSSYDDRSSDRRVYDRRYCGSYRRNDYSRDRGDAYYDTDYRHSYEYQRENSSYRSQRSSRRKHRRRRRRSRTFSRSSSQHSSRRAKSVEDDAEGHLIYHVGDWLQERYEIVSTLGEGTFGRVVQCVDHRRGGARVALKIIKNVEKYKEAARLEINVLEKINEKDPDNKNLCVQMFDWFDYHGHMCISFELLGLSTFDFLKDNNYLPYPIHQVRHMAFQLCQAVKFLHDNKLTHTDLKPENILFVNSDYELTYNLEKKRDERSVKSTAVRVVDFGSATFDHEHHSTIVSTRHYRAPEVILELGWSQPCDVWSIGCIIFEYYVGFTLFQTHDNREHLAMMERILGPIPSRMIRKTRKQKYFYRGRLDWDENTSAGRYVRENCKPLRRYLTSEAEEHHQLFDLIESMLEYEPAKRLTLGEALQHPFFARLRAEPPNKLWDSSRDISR", "assay": "Inhibition of human CLK2 (138 to 499 residues) assessed as enzyme activity at 1 uM using 33P ATP by radioactive filter binding assay", "parameters": "scale not given: the % may be the effect or the level left", "data": [{"smiles": "Nc1nccc(-c2c[nH]c3ncccc23)n1", "note": "[MERIOLIN 1]", "values": [{"measurement": "Activity", "result": -98, "unit": "%"}]}]}
